Measured values: ChEMBL document CHEMBL3745694, “Total synthesis and cytotoxic activities of longamide B, longamide B methyl ester, hanishin, and their analogues” (Bioorg Med Chem Lett, 2016)

Legend:
[1] = system: A549; assay: Cytotoxicity against human A549 cells after 72 hrs by CCK-8 assay; format: functional, cell-based; conditions: A549, 72 h
[2] = Cytotoxicity against human PC3 cells after 72 hrs by CCK-8 assay; format: functional, cell-based; conditions: PC-3, 72 h

For `O=C(O)CC1CNC(=O)c2cc(Br)c(Br)n21` (racemic), which IC50 [1] is on record?
The IC50 was greater than 200 µM.

What about the IC50 [2] of the same compound?
Its IC50 is greater than 200 µM.

Which results are given for `COC(=O)CC1CNC(=O)c2ccc(Br)n21` (configuration not stated)?
IC50 [1]: 65 µM; IC50 [2]: 70 µM

For `CCOC(=O)CC1CNC(=O)c2ccc(Br)n21` (configuration not stated), which IC50 [1] is on record?
The IC50 was 32 µM.

And the IC50 [2]?
The IC50 was 29 µM.

Which results are given for `COC(=O)Cc1c[nH]c(=O)c2cc(Br)c(Br)n12`?
IC50 [1]: > 200 µM; IC50 [2]: > 200 µM

What does the source list for `COC(=O)Cc1c[nH]c(=O)c2cccn12`?
IC50 [1]: > 200 µM; IC50 [2]: > 200 µM

With `COC(=O)Cc1c[nH]c(=O)c2ccc(Br)n12` as the compound, how does the IC50 [1] read?
Its IC50 is 165 µM.

And the IC50 [2]?
The IC50 was 176 µM.

For `CCOC(=O)CC1CNC(=O)c2cc(Br)c(Br)n21` (racemic), which IC50 [1] is on record?
Its IC50 is 41 µM.

And the IC50 [2]?
The IC50 was 39 µM.

For `COC(=O)CC1CNC(=O)c2cccn21` (configuration not stated), which IC50 [1] is on record?
The IC50 was greater than 200 µM.

And the IC50 [2]?
Its IC50 is greater than 200 µM.

What does the source list for `O=C(O)CC1CNC(=O)c2ccc(Br)n21` (configuration not stated)?
IC50 [1]: > 200 µM; IC50 [2]: > 200 µM

For `CO[C@@]12[C@H](COC(N)=O)C3=C(C(=O)C(C)=C(N)C3=O)N1C[C@@H]1N[C@@H]12` [MITOMYCIN], which IC50 [1] is on record?
The IC50 was 1.7 µM.

And the IC50 [2]?
The IC50 was 1.4 µM.

With `COC(=O)CC1CNC(=O)c2cc(Br)c(Br)n21` (racemic) as the compound, how does the IC50 [1] read?
The IC50 was 82 µM.

What about the IC50 [2] of the same compound?
The IC50 was 79 µM.
